pEC50: −log10 of the molar value. *1 amine or outer side, *2 acyl side, *3 side chain or, on linkers, in order; H or OH if unused. Where a SMILES comes first, the peptide text is derived from it. Bridges are numbered along the chain shown (N, C = ends). [ ]: non-standard residue; d: D form. X34 = O=C(C[C@@H](Cc1ccccc1)C(=O)[*:2])C12CC(CN[*:1])(C1)C2; Phe(4-guanidino) = N=C(N)Nc1ccc(C[C@H](N)C(=O)O)cc1; X78 = Nc1ccnc2ccc(C[C@H](N[*:1])C(=O)[*:2])cc12; Ala(pyrimidin-5-yl) = N[C@@H](Cc1cncnc1)C(=O)O; X25 = O=C([C@H](Cc1ccc(F)nc1)N[*:1])[*:2]; Lys(N3) = [N-]=[N+]=NCCCC[C@H](N)C(=O)O; Nle(5,5-F2) = CC(F)(F)CC[C@H](N)C(=O)O; Phe(4-Me) = Cc1ccc(C[C@H](N)C(=O)O)cc1; 1Nal = N[C@@H](Cc1cccc2ccccc12)C(=O)O; X21 = O=C([C@@H]1C[C@H]1CN[*:1])[*:2]; Phe(2-F) = N[C@@H](Cc1ccccc1F)C(=O)O; NMe3Pal = CN[C@@H](Cc1cccnc1)C(=O)O; X1 = O=C(C12CC(CN[*:1])(C1)C2)[*:2]; NMeR = CN[C@@H](CCCNC(=N)N)C(=O)O; Ala(cPr) = N[C@@H](CC1CC1)C(=O)O; NMeF = CN[C@@H](Cc1ccccc1)C(=O)O; PhLac = O=C(O)[C@@H](O)Cc1ccccc1; 3Pal = N[C@@H](Cc1cccnc1)C(=O)O; 4Pal = N[C@@H](Cc1ccncc1)C(=O)O; αMeC = C[C@](N)(CS)C(=O)O; NMeA = CN[C@@H](C)C(=O)O; Nle = CCCC[C@H](N)C(=O)O

Chain of KRAS-G12D protein (P01116 1-188 isoform P01116-2 G12D): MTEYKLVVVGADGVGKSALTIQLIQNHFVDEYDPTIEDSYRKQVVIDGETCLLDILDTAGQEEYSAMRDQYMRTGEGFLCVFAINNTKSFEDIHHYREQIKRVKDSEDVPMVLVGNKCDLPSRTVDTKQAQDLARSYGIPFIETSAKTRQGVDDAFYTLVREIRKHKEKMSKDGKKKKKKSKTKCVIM

This test addresses KRAS-G12D protein (Homo sapiens, UniProt P01116, G12D). Put plainly: SOS-mediated nucleotide exchange assay (BODIPY-GDP / Tb-streptavidin TR-FRET). Format: biochemical. (In TR-FRET formats the signal depends on donor and acceptor labels being close together.)
On to `C[C@H]1C(=O)N[C@@H](Cc2cncnc2)C(=O)N[C@@H](CC2CC2)C(=O)N[C@@H](Cc2ccccc2F)C(=O)N[C@@H](CCC(C)(F)F)C(=O)N(C)[C@@H](Cc2ccccc2)C(=O)NCC23CC(C2)(C3)C(=O)C[C@@H](Cc2ccccc2)C(=O)N1C` [compound 290, cyclo(CPhe-NMeA~PyrimAla-cPrA-Phe2F-Nle3F2-NMeF-amBCP)] (cyclo([Ala(cPr)][Phe(2-F)][Nle(5,5-F2)][NMeF][X34][NMeA][Ala(pyrimidin-5-yl)])), for which the pEC50 (usually the EC50 on a negative log10 scale, so that one unit is a factor of ten) was 8.70.

The molecule `CCCC[C@@H]1NC(=O)[C@H](Cc2cccnc2)NC(=O)[C@H](CCCNC(=N)N)N(C)C(=O)[C@H](Cc2ccccc2)NC(=O)[C@@H]2C[C@H]2CNC(=O)[C@H](Cc2ccccc2)N(C)C(=O)[C@H](CCCCN=[N+]=[N-])NC(=O)[C@H](Cc2ccc(OC)cc2)NC1=O` [compound 94, cyclo(F-NMeR-3Pal-Nle-TyrOMe-LysN3-NMeF-tamcPr)] (cyclo(F[NMeR][3Pal][Nle]Y(Me)[Lys(N3)][NMeF][X21])) showed a negative-log EC50 (pEC50) of 6.65.

Consider `COc1ccc(C[C@@H]2NC(=O)[C@H](CC3CCC3)NC(=O)[C@H](Cc3cccnc3)NC(=O)[C@H](CCCNC(=N)N)NC(=O)[C@H](Cc3ccccc3)NC(=O)CSC[C@](C)(C(N)=O)NC(=O)[C@@H]3CCCCCCCC[C@H](NC2=O)C(=O)N3C)cc1` (single isomer, unassigned) [SEQ ID NO: 191], for which the negative-log EC50 (pEC50) is 6.49.

`CCCC[C@@H]1NC(=O)[C@H](Cc2ccncc2)NC(=O)[C@H](CCCNC(=N)N)NC(=O)[C@H](Cc2cccc3ccccc23)NC(=O)CSC[C@@](C)(C(N)=O)NC(=O)[C@H](Cc2cccnc2)N(C)C(=O)[C@H](CCCC)NC(=O)[C@H](Cc2ccc(O)cc2)NC1=O` [compound 333, cyclo(INal-R-4Pal-Nle-Y-Nle-NMe3Pal-aMeCl-ClAc)] ({CH2CO}-[1Nal]R[4Pal][Nle]Y[Nle][NMe3Pal][αMeC]-NH2; thioether N-8): the negative logarithm of the EC50 (pEC50) is 7.70.

With `CCCC[C@@H]1NC(=O)[C@H](Cc2ccc(OC)cc2)NC(=O)[C@H](CC(C)C)NC(=O)[C@H](Cc2ccc(NC(=N)N)cc2)NC(=O)[C@H](Cc2ccc3nccc(N)c3c2)NC(=O)[C@H](Cc2ccccc2)NC(=O)CSC[C@@H](C(N)=O)NC(=O)[C@H](Cc2ccccc2)N(C)C1=O` [compound 29, cyclo(F-6Quin4NH2-Phe4Gn-L-TyrOMe-Nle-NMeF-Cl-ClAc)] ({CH2CO}-F[X78][Phe(4-guanidino)]LY(Me)[Nle][NMeF]C-NH2; thioether N-8), the pEC50 is 5.11.

Regarding `CCCC[C@@H]1NC(=O)[C@H](Cc2ccc(F)nc2)NC(=O)[C@H](C)N(C)C(=O)[C@H](Cc2ccccc2)OC(=O)C23CC(CNC(=O)[C@H](Cc4cccnc4)N(C)C(=O)[C@H](CCCC)NC(=O)[C@H](Cc4ccccc4F)NC1=O)(C2)C3` [compound 235, cyclo(FLac-NMeA-4F3Pal-Nle-Phe2F-Nle-NMe3Pal-amBCP)] (cyclo([NMe3Pal][X1][PhLac][NMeA][X25][Nle][Phe(2-F)][Nle])), the pEC50 is 7.73.

Consider `CCCC[C@@H]1NC(=O)[C@H](Cc2cccnc2)NC(=O)[C@H](C)N(C)C(=O)[C@H](Cc2ccc(C)cc2)NC(=O)C23CC(CNC(=O)[C@H](Cc4cccnc4)N(C)C(=O)[C@H](CCCC)NC(=O)[C@H](Cc4ccccc4F)NC1=O)(C2)C3` [compound 170, cyclo(Phe4Me-NMeA-3Pal-Nle-Phe2F-Nle-NMe3Pal-amBCP)] (cyclo([3Pal][Nle][Phe(2-F)][Nle][NMe3Pal][X1][Phe(4-Me)][NMeA])), for which the pEC50 was 7.04.

With `CCCCC[C@@H]1NC(=O)[C@H](Cc2ccc(OC)cc2)NC(=O)[C@H](CC2CCC2)NC(=O)[C@H](Cc2ccc(=O)[nH]c2)NC(=O)[C@H](CCCNC(=N)N)NC(=O)[C@H](Cc2ccccc2)NC(=O)CSC[C@@](C)(C(N)=O)NC(=O)[C@H](Cc2ccccc2)N(C)C1=O` [compound 369, cyclo(F-R-4CO3Pal-cBuA-TyrOMe-Abp-NMeF-aMeCl-ClAc)], the pEC50 is 7.71.

For the origin of these results see patent US20260001914A1, “MACROCYCLIC PEPTIDES TARGETING KRAS” (Merck Sharp & Dohme LLC, priority 2022, published 2026).
